Key:
[1] = system: chondrocytes embedded in bovine cartilage matrix; test: Uptake of FITC-trehalose by chondrocytes embedded in bovine cartilage matrix; format: cell-based; conditions: intact bovine cartilage, 4 hours
Protocol: The same lyophilization methods effective for placental membrane and skin allograft compositions were used for cartilage graft compositions. First, intact pieces of bovine cartilage were incubated with FITC-trehalose for 4 hours and washed thoroughly to remove excess trehalose. […] Intact bovine cartilage, intact bovine cartilage with 1 mm pores, and micronized bovine cartilage were soaked in a trehalose solution for 4 hours at 37 C with agitation prior to lyophilization in the same trehalose solution.

[2] = system: chorionic stromal cells in suspension; test: Uptake of FITC-trehalose by chorionic stromal cells in suspension; format: cell-based, human; conditions: 4 hours at room temperature
Protocol: Previous reports of lyophilization of cells in suspension have used trehalose as a lyoprotectant. To confirm that placental cells can uptake trehalose, cells were fully isolated from chorionic membranes and added to a well-plate. To the cell suspension, a commercially available fluorescently tagged trehalose, FITC-trehalose, was added and allowed to incubate for 4 hours at room temperature. Cells were washed multiple times to remove any remaining free FITC-trehalose.

[3] = system: epithelial cells in the amniotic membrane; test: Uptake of FITC-trehalose by native cells in fresh amniotic membrane; format: cell-based, human; conditions: 2.5 mM FITC-trehalose in 0.5M trehalose, room temperature, 1 hour
Protocol: (§1) To further investigate the protective mechanism that leads to viable lyophilized placental membrane compositions, fresh amniotic and chorionic membranes were incubated in 2.5 mM FITC-trehalose in a 0.5M trehalose solution at room temperature for 1 hour and then thoroughly washed to remove excess trehalose. […] Longer incubation times with higher concentrations of trehalose at an elevated temperature could increase diffusion of trehalose into these cells and may promote enhanced cell survival following lyophilization.

[4] = system: stromal cells in the chorionic membrane; test: Uptake of FITC-trehalose by native cells in fresh chorionic membrane; format: cell-based, human; conditions: 2.5 mM FITC-trehalose in 0.5M trehalose, room temperature, 1 hour
Protocol: as §1

For FITC-trehalose, the uptake of trehalose [1] was “some trehalose can be taken up by chondrocytes”, the uptake of trehalose [2] was “uptake trehalose at low levels” and the uptake of trehalose [3] was “readily uptake trehalose”. The uptake of trehalose [4] was “readily uptake trehalose”.

— patent US20260091065A1, “VIABLE LYOPHILIZED COMPOSITIONS DERIVED FROM HUMAN TISSUES AND METHODS OF MAKING THE SAME” (OSIRIS THERAPEUTICS, INC., priority 2016, published 2026)
